Structures can show the parent of a compound that is named as a salt.
How the values were obtained:
human CXCR4 = target: T1, human CXCR4 (Homo sapiens, UniProt P61073); assay: Functional FLIPR assay (block of SDF-1 alpha calcium response); format: cell-based; details: HEK-293 cells with human CXCR4 and Gqi5 BacMam; antagonism of SDF-1 alpha [Ca2+]i change; read-out: Functional assay (pIC50) (converted)
T1 construct: expressed in transfected cells; host or cells: HEK-293 cells (stably expressing human macrophage scavenging receptor) transduced with human CXCR4 BacMam and Gqi5 BacMam baculovirus
T1 sequence (P61073 whole entry): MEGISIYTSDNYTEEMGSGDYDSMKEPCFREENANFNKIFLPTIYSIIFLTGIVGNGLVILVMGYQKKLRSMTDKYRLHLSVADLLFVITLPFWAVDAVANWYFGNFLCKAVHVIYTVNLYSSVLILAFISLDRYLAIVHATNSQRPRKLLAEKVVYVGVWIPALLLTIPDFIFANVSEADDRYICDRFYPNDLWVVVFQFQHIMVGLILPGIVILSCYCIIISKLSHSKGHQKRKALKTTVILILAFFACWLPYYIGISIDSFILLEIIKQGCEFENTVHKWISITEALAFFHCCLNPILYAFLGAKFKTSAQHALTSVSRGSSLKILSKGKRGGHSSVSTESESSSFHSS
Protocol: Human embryonic kidney (HEK-293) cells were maintained and harvested as described above. Cells were plated in 96-well, black clear bottom, poly-lysine coated plates at a concentration of 40,000 cells per well in a final volume of 100 ul containing human CXCR4BacMam (MOI=25) and Gqi5 BacMam (MOI=12.5). The cells were incubated at 37° C., 5% CO2, 95% humidity for 24 h to allow for protein expression.
After the required incubation time the cells were washed once with 50 ul of fresh serum-free DMEM/F12 media containing probenicid. 50 ul of dye solution was then added to the cells (Calcium Plus Assay Kit Dye; Molecular Devices) was dissolved in 200 ml of the above probenicid/BSA containing media and incubated for 1 h. Cell plates were transferred to a Fluorometric Imaging Plate Reader (FLIPR). Upon addition the effect of the compounds on the change in [Ca^2+]i was examined to determine if the compounds were agonists or antagonists (ability to block SDF-1 alpha activity) at the CXCR4 receptor. IC50 values are determined and pKb values are calculated using the Leff and Dougall equation: KB=IC50/((2+([agonist]/EC50̂b) ̂1/b−1) Where IC50 is that defined by the antagonist concentration-response curve [agonist] is the EC80 concentration of agonist used EC50 is that defined by the agonist concentration-response curve b is the slope of the agonist concentration-response curve.

[1] = tested on: HIV-1 gp160 (HXB2 strain) HEK-293 cells fusing with HOS (hCXCR4/hCCR5/hCD4/pHIV-LTR-luciferase) cells; assay: Cell/cell fusion assay (luciferase); format: cell-based; details: Homo sapiens, HEK (tat/rev/gp160 HXB2) + HOS cells, 24 h, read-out: Fusion assay (pIC50) (converted)
Description: The complete coding sequences of HIV-1 tat (GenBank Accession No. X07861) and rev (GenBank Accession No. M34378) were cloned into pcDNA3.1 expression vectors containing G418 and hygromycin resistance genes, respectively. The complete coding sequence of the HIV-1 (HXB2 strain) gp160 envelope gene (nucleotide bases 6225-8795 of GenBank Accession No. K03455) was cloned into plasmid pCRII-TOPO. The three HIV genes were additionally inserted into the baculovirus shuttle vector, pFastBacMam1, under the transcriptional control of the CMV promoter. A construction of the pHIV-I LTR containing mutated NFkB sequences linked to the luciferase reporter gene was prepared by digesting pcDNA3.1, containing the G418 resistance gene, with Nru I and Bam HI to remove the CMV promoter. LTR-luc was then cloned into the Nru I/Bam HI sites of the plasmid vector. Plasmid preparations were performed after the plasmids were amplified in Escherichia coli strain DH5-alpha. The fidelity of the inserted sequences was confirmed by double-strand nucleotide sequencing using an ABI Prism Model 377 automated sequencer.
Recombinant BacMam baculoviruses were constructed from pFastBacMam shuttle plasmids by using the bacterial cell-based Bac-to-Bac system. Viruses were propagated in Sf9 (Spodoptera frugiperda) cells cultured in Hink's TNM-FH Insect media supplemented with 10% (v/v) fetal bovine serum and 0.1% (v/v) pluronic F-68 according to established protocols.
Human osteosarcoma (HOS) cells that naturally express human CXCR4 were transfected with human CCR5, human CD4 and the pHIV-LTR-luciferase plasmid using FuGENE 6 transfection reagent. Single cells were isolated and grown under selection condition in order to generate a stable HOS (hCXCR4/hCCR5/hCD4/pHIV-LTR-luciferase) clonal cell line. The cells were maintained in Dulbeccos modified Eagles media supplemented with 10% fetal calf serum (FCS), G418 (400 ug/ml), puromycin (1 ug/ml), mycophenolic acid (40 ug/ml), xanthine (250 ug/ml) and hypoxanthine (13.5 ug/ml) to maintain a selection pressure for cells expressing the LTR-luciferase, hCCR5 and hCD4, respectively. Human embryonic kidney (HEK-293) cells stably transfected to express the human macrophage scavenging receptor (Class A, type 1; GenBank Accession No. D90187), were maintained in DMEM/F-12 media (1:1) supplemented with 10% FCS and 1.5 ug/ml puromycin. The expression of this receptor by the HEK-293 cells enhances their ability to stick to tissue culture treated plasticware.
HEK-293 cells were harvested using enzyme-free cell dissociation buffer. The cells were resuspended in DMEM/F-12 media supplemented with 10% FCS and 1.5 ug/ml and counted. Tranductions were performed by direct addition of BacMam baculovirus containing insect cell media to cells. The cells were simultaneously transduced with BacMam baculovirus expressing HIV-1 tat, HIV-1 rev and HIV-1 gp160 (from the HXB2 HIV strain). Routinely an MOI of 10 of each virus was added to the media containing the cells. 2 mM butyric acid was also added to the cells at this stage to increase protein expression in transduced cells. The cells were subsequently mixed and seeded into a flask at 30 million cells per T225. The cells were incubated at 37° C., 5% CO2, 95% humidity for 24 h to allow for protein expression.
HEK and HOS cells were harvested in DMEM/F-12 media containing 2% FCS and DMEM media containing 2% FCS, respectively, with no selection agents added. Compounds were plated as 1 ul spots in 100% DMSO on a 96-well CulturPlate plates. HOS cells (50 ul) were added first to the wells, followed immediately by the HEK cells (50 ul). The final concentration of each cell type was 20,000 cells per well. Following these additions, the cells were returned to a tissue culture incubator (37° C.; 5% CO2/95% air) for an additional 24 h.
Following the 24 h incubation, total cellular luciferase activity was measured using the LucLite Plus assay kit (Packard, Meridien, Conn.). […]

c1cnc2c(c1)CC[C@@H]1CCCN(Cc3nc4ccccc4n3Cc3ccncc3)[C@H]21 (racemic) [Example 12, (cis)-1-{[1-(4-Pyridinylmethyl)-1H-benzimidazol-2-yl]methyl}-1,2,3,4,4a,5,6,10b-octahydro-1,10-phenanthroline]
IC50 (human CXCR4): 1050 nM
IC50 [1]: 7940 nM

CN1CCN(c2cccc3nc(CN4CCC[C@H]5CCc6cccnc6[C@H]54)cn23)CC1 (racemic) [Example 15B, (cis)-1-{[5-(4-Methyl-1-piperazinyl)imidazo[1,2-a]pyridin-2-yl]methyl}-1,2,3,4,4a,5,6,10b-octahydro-1,10-phenanthroline]
IC50 (human CXCR4): 3.39 nM
IC50 [1]: 5.5 nM

c1cnc2c(c1)CC[C@H]1CCCN(Cc3nc4ccccc4[nH]3)[C@H]21 (racemic) [Example 6, (trans)-1-(1H-Benzimidazol-2-ylmethyl)-1,2,3,4,4a,5,6,10b-octahydro-1,10-phenanthroline]
IC50 (human CXCR4): 126 nM
IC50 [1]: 1120 nM

CN1CCN(c2cccc3[nH]c(CN4CCC[C@@H]5CCc6cccnc6[C@H]54)nc23)CC1 (racemic) [Example 32, (trans)-1-{[4-(4-Methyl-1-piperazinyl)-1H-benzimidazol-2-yl]methyl}-1,2,3,4,4a,5,6,10b-octahydro-1,10-phenanthroline trifluoroacetate]
IC50 (human CXCR4): 479 nM
IC50 [1]: 200 nM

CN1CCN(c2cccc3nc(CN4CCC[C@H]5CCc6cccnc6[C@H]54)[nH]c23)CC1 (racemic) [Example 33, (cis)-1-{[4-(4-Methyl-1-piperazinyl)-1H-benzimidazol-2-yl]methyl}-1,2,3,4,4a,5,6,10b-octahydro-1,10-phenanthroline]
IC50 (human CXCR4): 2.4 nM
IC50 [1]: 0.398 nM

CN(C)CCCn1c(CN2CCC[C@@H]3CCc4cccnc4[C@H]32)nc2ccccc21 (stereo in doubt) [Example 10B, (3-{2-[(4aS,10bS)-3,4,4a,5,6,10b-Hexahydro-1,10-phenanthrolin-1(2H)-ylmethyl]-1H-benzimidazol-1-yl}propyl)dimethylamine]
IC50 (human CXCR4): 93.3 nM
IC50 [1]: 200 nM

NCCCn1c(CN2CCC[C@H]3CCc4cccnc4[C@H]32)nc2ccccc21 (racemic) [Example 9, (cis)-3-[2-(3,4,4a,5,6,10b-Hexahydro-1,10-phenanthrolin-1(2H)-ylmethyl)-1H-benzimidazol-1-yl]-1-propanamine]
IC50 (human CXCR4): 19.5 nM
IC50 [1]: 89.1 nM

c1cnc2c(c1)CC[C@@H]1CCCN(Cc3nc4ccccc4[nH]3)[C@H]21 (racemic) [Example 7, (cis)-1-(1H-Benzimidazol-2-ylmethyl)-1,2,3,4,4a,5,6,10b-octahydro-1,10-phenanthroline]
IC50 (human CXCR4): 437 nM
IC50 [1]: 3160 nM

CN1CCCC(Cn2c(CN3CCC[C@H]4CCc5cccnc5[C@H]43)nc3ccccc32)C1 (mixture of isomers) [Example 13, (cis)-1-({1-[(1-Methyl-3-piperidinyl)methyl]-1H-benzimidazol-2-yl}methyl)-1,2,3,4,4a,5,6,10b-octahydro-1,10-phenanthroline]
IC50 (human CXCR4): 7.59 nM
IC50 [1]: 31.6 nM

CN1CCN(c2cccc3nc(CN4CCC[C@H]5CCc6cccnc6[C@H]54)cn23)CC1 [Example 27, (4aR,10bS)-1-{[5-(4-Methyl-1-piperazinyl)imidazo[1,2-a]pyridin-2-yl]methyl}-1,2,3,4,4a,5,6,10b-octahydro-1,10-phenanthroline]
IC50 (human CXCR4): 1.26 nM
IC50 [1]: 1.26 nM

CN1CCN(c2cccc3nc(CN4CCC[C@@H]5CCc6cccnc6[C@H]54)cn23)CC1 (racemic) [Example 15A, (trans)-1-{[5-(4-Methyl-1-piperazinyl)imidazo[1,2-a]pyridin-2-yl]methyl}-1,2,3,4,4a,5,6,10b-octahydro-1,10-phenanthroline]
IC50 (human CXCR4): 40.7 nM
IC50 [1]: 77.6 nM

CN(C)CCCn1c(CN2CCC[C@@H]3CCc4cccnc4[C@@H]32)nc2ccccc21 [Example 11A, (3-{2-[(4aS,10bR)-3,4,4a,5,6,10b-Hexahydro-1,10-phenanthrolin-1(2H)-ylmethyl]-1H-benzimidazol-1-yl}propyl)dimethylamine]
IC50 (human CXCR4): 851 nM
IC50 [1]: 1260 nM

CN1CCN(c2cccc3nc(CN4CCC[C@@H]5CCc6cccnc6[C@@H]54)cn23)CC1 [Example 22, (4aS,10bR)-1-{[5-(4-Methyl-1-piperazinyl)imidazo[1,2-a]pyridin-2-yl]methyl}-1,2,3,4,4a,5,6,10b-octahydro-1,10-phenanthroline]
IC50 (human CXCR4): 31.6 nM
IC50 [1]: 158 nM

CN(C)CCCn1c(CN2CCC[C@H]3CCc4cccnc4[C@@H]32)nc2ccccc21 (stereo in doubt) [Example 10A, (3-{2-[(4aR,10bR)-3,4,4a,5,6,10b-Hexahydro-1,10-phenanthrolin-1(2H)-ylmethyl]-1H-benzimidazol-1-yl}propyl)dimethylamine]
IC50 (human CXCR4): 182 nM
IC50 [1]: 417 nM

NCCCn1c(CN2CCC[C@@H]3CCc4cccnc4[C@H]32)nc2ccccc21 (racemic) [Example 8, (trans)-3-[2-(3,4,4a,5,6,10b-Hexahydro-1,10-phenanthrolin-1(2H)-ylmethyl)-1H-benzimidazol-1-yl]-1-propanamine]
IC50 (human CXCR4): 126 nM
IC50 [1]: 490 nM

CN(C)CCCn1c(CN2CCC[C@H]3CCc4cccnc4[C@H]32)nc2ccccc21 [Example 11B, (3-{2-[(4aR,10bS)-3,4,4a,5,6,10b-Hexahydro-1,10-phenanthrolin-1(2H)-ylmethyl]-1H-benzimidazol-1-yl}propyl)dimethylamine]
IC50 (human CXCR4): 10.5 nM
IC50 [1]: 25.1 nM
